Results on 22 compounds are retold here after patent US7205305B2, “Inhibitors of p38” (Vertex Pharmaceuticals Incorporated, priority 1996, dated 2007).

In one assay the target is activated p38 (Homo sapiens, UniProt Q16539). As to the kind of experiment: Inhibition of phosphorylation of EGF receptor peptide ("kinase"). The class given is biochemical. The conditions noted are these: inhibition of phosphorylation of EGF receptor peptide by activated p38. The essentials: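 Activated p38 was preincubated with inhibitor for 15 min at room temperature in 100 mM HEPES pH 7.6, 10 mM MgCl2, 25 mM β-glycerophosphate, 10% glycerol, 5% DMSO final. Reaction used 200 μM EGF receptor peptide and 100 μM ATP for 30 min at 30° C. TFA-quenched phosphopeptide was quantified by reverse-phase HPLC.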

The test system of assay [1] is IL-1 production in LPS-stimulated PBMCs. As to the kind of experiment: Inhibition of IL-1 production in LPS-stimulated PBMCs ("cell"). The class given is cell-based, human. The conditions noted are these: Homo sapiens, PBMC. The essentials:
(§1)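 Human PBMCs (4.8×10^6 cells/ml, RPMI1640/10% FBS) pre-treated with inhibitor dilutions, then stimulated with 4 ng/ml LPS final and incubated overnight (12–15 h) at 37 °C/5% CO2. Supernatant IL-1β and TNF-α measured by ELISA; IC50 from dose-response curves.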

In assay [2] the test system is TNF production in LPS-stimulated PBMCs. As to the kind of experiment: Inhibition of TNF production in LPS-stimulated PBMCs ("cell"). The class given is cell-based, human. The conditions noted are these: Homo sapiens, PBMC. The essentials:
as §1

In assay [3] the test system is IL-1 production in whole blood. The assay can be described thus: Inhibition of IL-1 production in LPS-stimulated whole blood ("WB"). Format: cell-based, human. The conditions noted are these: Homo sapiens. The protocol:
(§2) Inhibitors were serially diluted in DMSO from a 20 mM stock. At least 6 serial dilutions were prepared. Then 4× inhibitor stocks were prepared by adding 4 μl of an inhibitor dilution to 1 ml of RPMI1640 medium/10% fetal bovine serum. The 4× inhibitor stocks contained inhibitor at concentrations of 80 μM, 32 μM, 12.8 μM, 5.12 μM, 2.048 μM, 0.819 μM, 0.328 μM, 0.131 μM, 0.052 μM, 0.021 μM etc. The 4× inhibitor stocks were pre-warmed at 37° C. until use.
(§3) Alternatively, whole blood containing an anti-coagulant was used directly in the assay.
(§4) We placed 100 μl of cell suspension or whole blood in each well of a 96-well cell culture plate. Then we added 50 μl of the 4× inhibitor stock to the cells. Finally, we added 50 μl of a lipopolysaccharide (LPS) working stock solution (16 ng/ml in cell culture medium) to give a final concentration of 4 ng/ml LPS in the assay. The total assay volume of the vehicle control was also adjusted to 200 μl by adding 50 μl cell culture medium. The PBMC cells or whole blood were then incubated overnight (for 12–15 hours) at 37° C./5% CO2 in a humidified atmosphere.
(§5) The next day the cells were mixed on a shaker for 3–5 minutes before centrifugation at 500×g for 5 minutes. Cell culture supernatants were harvested and analyzed by ELISA for levels of IL-1b (R & D Systems, Quantikine kits, #DBL50), TNF-α (BioSource, #KHC3012), IL-6 (Endogen, #EH2-IL6) and IL-8 (Endogen, #EH2-IL8) according to the instructions of the manufacturer. The ELISA data were used to generate dose-response curves from which IC50 values were derived.

Assay [4] deals with TNF production in whole blood. As to the kind of experiment: Inhibition of TNF production in LPS-stimulated whole blood ("WB"). Particulars: Homo sapiens. Format: cell-based, human. The protocol: as §2, §3, §4, §5
The test system of assay [5] is IL-6 production in whole blood. The assay can be described thus: Inhibition of IL-6 production in LPS-stimulated whole blood ("WB"). The conditions noted are these: Homo sapiens. The class given is cell-based, human. As to the method: as §2, §3, §4, §5

pIC50: −log10 of the molar value. Where only a bound is given, the exact number is not on record here.

Chain of activated p38 (Q16539 whole entry): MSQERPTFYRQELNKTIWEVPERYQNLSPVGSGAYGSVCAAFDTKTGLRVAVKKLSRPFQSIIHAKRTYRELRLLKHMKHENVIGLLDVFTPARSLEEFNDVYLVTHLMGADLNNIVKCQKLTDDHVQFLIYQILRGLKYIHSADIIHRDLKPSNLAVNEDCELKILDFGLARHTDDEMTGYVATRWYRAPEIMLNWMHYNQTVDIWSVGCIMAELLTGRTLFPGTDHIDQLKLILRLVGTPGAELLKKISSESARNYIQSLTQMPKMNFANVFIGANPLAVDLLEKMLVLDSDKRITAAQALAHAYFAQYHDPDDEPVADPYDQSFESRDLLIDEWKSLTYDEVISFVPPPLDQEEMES

Turning to `COC(=O)c1ccccc1SC1=NN2CNC(=O)C(c3c(Cl)cccc3Cl)=C2C=C1` [Compound 101], the pIC50 against activated p38 is 6.00 to 7.00; in assay [1], at least 7.00; in assay [2], at least 7.00; in assay [3] it was at most 6.30; in assay [4] it was at most 6.30; in assay [5], 6.30 to 6.60.
Take `Cc1ccccc1SC1=NN2CNC(=O)C(c3c(Cl)cccc3Cl)=C2C=C1` [Compound 102]: the negative-log IC50 (pIC50) was at least 7.00 against activated p38; at least 7.00 in assay [1]; at least 7.00 in assay [2]; at most 6.30 in assay [3]; 6.30 to 6.60 in assay [4]; 6.30 to 6.60 in assay [5].
As to `O=C1NCN2N=C(Sc3ccc(F)cc3)C=CC2=C1c1c(Cl)cccc1Cl` [Compound 103], the pIC50 against activated p38 was at least 7.00; in assay [1], at least 7.00; in assay [2] it was at least 7.00; in assay [3] it was at most 6.30; in assay [4] it was 6.30 to 6.60; in assay [5], 6.30 to 6.60.
On to `O=C1NCN2N=C(Sc3ccccc3C(=O)O)C=CC2=C1c1c(Cl)cccc1Cl` [Compound 104], for which the pIC50 at activated p38 was 6.00 to 7.00; in assay [1] it was 6.30 to 7.00; in assay [2], 6.30 to 7.00; in assay [3], at most 6.30; in assay [4], at most 6.30; in assay [5] it was at most 6.30.
For `Cc1cc(Cl)ccc1SC1=NN2CNC(=O)C(c3c(Cl)cccc3Cl)=C2C=C1` [Compound 106], the pIC50 is at least 7.00 at activated p38; at least 7.00 in assay [1]; at least 7.00 in assay [2]; at most 6.30 in assay [3]; 6.30 to 6.60 in assay [4]; 6.30 to 6.60 in assay [5].
With `O=C1NCN2N=C(Sc3ccccc3CO)C=CC2=C1c1c(Cl)cccc1Cl` [Compound 108], the pIC50 was at least 7.00 against activated p38; 6.30 to 7.00 in assay [1]; at least 7.00 in assay [2]; 6.30 to 6.60 in assay [3]; at least 6.60 in assay [4]; at least 6.60 in assay [5].
Consider `O=C1NCN2N=C(Sc3ccccc3Br)C=CC2=C1c1c(Cl)cccc1Cl` [Compound 109], for which the pIC50 against activated p38 is at least 7.00; in assay [1], at least 7.00; in assay [2], at least 7.00; in assay [3], at most 6.30; in assay [4], at most 6.30; in assay [5] it was 6.30 to 6.60.
Turning to `CC(C)(C)OC(=O)Nc1ccccc1SC1=NN2CNC(=O)C(c3c(Cl)cccc3Cl)=C2C=C1` [Compound 112], the pIC50 was 6.00 to 7.00 at activated p38; 6.30 to 7.00 in assay [1]; at most 6.30 in assay [2]; at most 6.30 in assay [3]; at most 6.30 in assay [4]; at most 6.30 in assay [5].
As for `Cc1ccc(SC2=NN3CNC(=O)C(c4c(Cl)cccc4Cl)=C3C=C2)c(C)c1` [Compound 113], the negative-log IC50 (pIC50) is at least 7.00 at activated p38; at least 7.00 in assay [1]; 6.30 to 7.00 in assay [2]; at most 6.30 in assay [3]; at most 6.30 in assay [4]; at most 6.30 in assay [5].
In the case of `O=C1NCN2N=C(Sc3ccccc3O)C=CC2=C1c1c(Cl)cccc1Cl` [Compound 114], the negative-log IC50 (pIC50) against activated p38 is at least 7.00; in assay [1], at least 7.00; in assay [2], at least 7.00; in assay [3] it was 6.30 to 6.60; in assay [4] it was 6.30 to 6.60; in assay [5] it was at least 6.60.
For `Nc1ccccc1SC1=NN2CNC(=O)C(c3c(Cl)cccc3Cl)=C2C=C1` [Compound 115], the negative-log IC50 (pIC50) at activated p38 was at least 7.00; in assay [1], at least 7.00; in assay [2] it was at least 7.00; in assay [3] it was at most 6.30; in assay [4], at most 6.30; in assay [5] it was at most 6.30.
Turning to `N#Cc1ccccc1SC1=NN2CNC(=O)C(c3c(Cl)cccc3Cl)=C2C=C1` [Compound 116], the pIC50 was at least 7.00 against activated p38; at least 7.00 in assay [1]; 6.30 to 7.00 in assay [2]; at most 6.30 in assay [3]; at most 6.30 in assay [4]; at most 6.30 in assay [5].
Take `Nc1cc(F)ccc1SC1=NN2CNC(=O)C(c3c(Cl)cccc3Cl)=C2C=C1` [Compound 117]: the pIC50 against activated p38 was at least 7.00; in assay [1], at least 7.00; in assay [2], at least 7.00; in assay [3], 6.30 to 6.60; in assay [4], 6.30 to 6.60; in assay [5] it was at least 6.60.
Take `NCc1ccccc1SC1=NN2CNC(=O)C(c3c(Cl)cccc3Cl)=C2C=C1` [Compound 118]: the pIC50 on activated p38 was 6.00 to 7.00; in assay [1], 6.30 to 7.00; in assay [2], 6.30 to 7.00; in assay [3], at most 6.30; in assay [4] it was at most 6.30; in assay [5], at most 6.30.
For the compound `COc1ccc(C2=C3C=CC(Sc4ccc(F)cc4)=NN3CNC2=O)c(Cl)c1OC` [Compound 121], the pIC50 against activated p38 was at least 7.00; in assay [1], at least 7.00; in assay [2], 6.30 to 7.00; in assay [3], at most 6.30; in assay [4] it was at most 6.30; in assay [5], at most 6.30.
`Nc1ccc(F)cc1SC1=NN2CNC(=O)C(c3c(Cl)cccc3Cl)=C2C=C1` [Compound 122]: the pIC50 against activated p38 is 6.00 to 7.00; in assay [1], 6.30 to 7.00; in assay [2], at most 6.30; in assay [3], at most 6.30; in assay [4] it was at most 6.30; in assay [5], at most 6.30.
In the case of `O=C1NCN2N=C(Sc3ccccc3CNc3ncc[nH]3)C=CC2=C1c1c(Cl)cccc1Cl` [Compound 123], the negative-log IC50 (pIC50) against activated p38 was 6.00 to 7.00; in assay [1], 6.30 to 7.00; in assay [2], 6.30 to 7.00; in assay [3] it was at most 6.30; in assay [4], at most 6.30; in assay [5], at most 6.30.
For `Nc1ccc(Cl)c(C2=C3C=CC(Sc4ccc(F)cc4)=NN3CNC2=O)c1Cl` [Compound 125], the pIC50 against activated p38 was at least 7.00; in assay [1] it was at least 7.00; in assay [2] it was at least 7.00; in assay [3], at most 6.30; in assay [4], at most 6.30; in assay [5], at most 6.30.
As for `O=C1NCN2N=C(Sc3ccc(F)cc3Cl)C=CC2=C1c1c(Cl)cccc1Cl` [Compound 127], the negative logarithm of the IC50 (pIC50) on activated p38 is at least 7.00; in assay [1] it was at least 7.00; in assay [2], at least 7.00; in assay [3], 6.30 to 6.60; in assay [4], 6.30 to 6.60; in assay [5], at least 6.60.
In the case of `O=C1NCN2N=C(Sc3ccc(F)cc3)C=CC2=C1c1cc2c(cc1Cl)OCO2` [Compound 129], the negative logarithm of the IC50 (pIC50) at activated p38 was at least 7.00; in assay [1] it was at least 7.00; in assay [2], at least 7.00; in assay [3] it was 6.30 to 6.60; in assay [4], at most 6.30; in assay [5], 6.30 to 6.60.
Take `COc1cc(Cl)c(C2=C3C=CC(Sc4ccc(F)cc4)=NN3CNC2=O)cc1O` [Compound 135]: the negative-log IC50 (pIC50) is at least 7.00 against activated p38; 6.30 to 7.00 in assay [1]; at most 6.30 in assay [2]; at most 6.30 in assay [3]; at most 6.30 in assay [4]; at most 6.30 in assay [5].
Take `O=C1NCN2N=C(Sc3ccc(F)cc3Cl)C=CC2=C1c1cc2c(cc1Cl)OCO2` [Compound 136]: the pIC50 at activated p38 was at least 7.00; in assay [1], at least 7.00; in assay [2], at least 7.00; in assay [3], at most 6.30; in assay [4], at most 6.30; in assay [5], 6.30 to 6.60.
